# Laboratory results: PMC12009420, “Dynamically chiral phosphonic acid-type metallo-β-lactamase inhibitors” (Communications Chemistry, 2025)
# Assay: Long term stability in buffer with 2.5% DMSO (LC-MS)
# Type: physicochemical
# Conditions: 20 mM KPO4, 0.1 mM ZnCl2, pH 7.0 + 2.5% DMSO; LC-MS 254 nm
# Description: Reagents, reactants, solvents and drying agents for synthesis, work-up and purification were purchased from commercial vendors (Sigma-Aldrich, VWR, Merck, Fluorochem, Thermo Fisher Scientific, Solveco), and if not stated otherwise they were used without further purification. Reactions and long term stability of the final compounds in buffer were monitored using LC-MS (Agilent 1260 Infinity II) equipped with an ESI-Q detector (Infinitylab LC-MSD) using Agilent InfinityLab Poroshell 120 C18 columns (2.7 μm, ϕ 2.1 mm L 50 mm or 2.7 μm, ϕ 4.6 mm L 50 mm). The intermediates were purified using VWR silica gel 60 (40–63 μm) with a Biotage Isolera One flash column chromatography instrument. The final products were purified with preparative RP-HPLC (VWR LaPrep P110) with single wavelength detection (254 nm), using a Kinetex C8 column (5 μm, 100 Å, ϕ 21.2 mm L 250 mm) and gradients of CH3CN/H2O + 0.1% formic acid as the mobile phase at a 10 mL/min flow rate. Analytical HPLC data were acquired on a VWR LaChrome ELITE system using an ACE3 C8 (3 μm, 300 Å, ϕ 3.0 mm L 100 mm) or a Kinetex C18 columns (5 μm, 100 Å, ϕ 3.0 mm L 150 mm). NMR spectra were recorded on a Varian Agilent MR400-DD2 400 MHz spectrometer equipped with a OneNMR probe, Bruker Avance Neo 500 MHz spectrometer equipped with a cryogenic TXO probe, or a Bruker Avance Neo 600 MHz spectrometer equipped with a TCI cryogenic probe. The chemical shifts are reported using the residual solvent signal as an indirect reference to TMS.
# 4. Long term stability of the final compounds in buffer with 2.5% DMSO
# The long term stability of the final compounds in buffer (20 mM KPO4, 0.1 mM ZnCl2, pH 7.0 + 2.5% DMSO) were monitored using LC-MS (Agilent 1260 Infinity II) equipped with an ESI-Q detector (Infinitylab LC-MSD) using Agilent InfinityLab Poroshell 120 C18 column (2.7 μm, ϕ 4.6 mm L 50 mm) at 254 nm with a 7 min long gradient method (5% to 95% CH3CN) of CH3CN/H2O + 0.1% formic acid as the mobile phase at a 1.0 mL/min flow rate. The samples were measured right after dissolving them in buffer, and after 1 month of keeping the same samples dissolved in the same buffer. The main peaks (> 95%) and impurities with > 1% are […]
# Figure S14. Compound 5a right after dissolving it in buffer.
# Figure S15. Compound 5a kept in buffer for 1 month. […]
structure (smiles),measurement,value
O=C(NC(c1ccccc1O)P(=O)(O)O)c1scc2c1CCCC2 (centres unmarked) [5g],main peak Area% kept in buffer for 1 month,98.05%
same,main peak Area% right after dissolving in buffer,98.21%
